Measured values published in US9107411B2, “Indolecarboxamides and benzimidazolecarboxamides as insecticides and acaricides” (BAYER INTELLECTUAL PROPERTY GMBH, priority 2011, dated 2015).
Where two headings read alike, the source gives them in different places.

How the values were obtained:
Spodoptera frugiperda = Spodoptera frugiperda test (SPODFR spray treatment); assay type: in vivo; conditions: maize leaf discs, after 7 days
Experimental: Spodoptera frugiperda Test (SPODFR Spray Treatment) Solvent: 78.0 parts by weight of acetone • • 1.5 parts by weight of dimethylformamide To produce an appropriate active ingredient formulation, 1 part by weight of active ingredient is mixed with the stated amounts of solvent and emulsifier, and the concentrate is diluted with emulsifier-containing water to the desired concentration. Leaf discs of maize (Zea mays) are sprayed with an active ingredient formulation of the desired concentration and, after drying, populated with caterpillars of the armyworm (Spodoptera frugiperda). After 7 days, the efficacy in % is determined 100% means that all of the caterpillars have been killed; 0% means that none of the caterpillars have been killed.

logP (HPLC-MS) = assay type: physicochemical
Phaedon cochleariae = assay: Phaedon test (PHAECO spray treatment); assay type: in vivo; conditions: Chinese cabbage leaf discs, after 7 days; for pest or weed control at 100 g/ha: Phaedon cochleariae, foliar, 168 h, read-out: efficacy in %
Experimental: Phaedon Test ([…] Spray Treatment) Solvent: 78.0 parts by weight of acetone • • 1.5 parts by weight of dimethylformamide Emulsifier: 0.5 part by weight of alkylaryl polyglycol ether To produce an appropriate active ingredient formulation, 1 part by weight of active ingredient is mixed with the stated amounts of solvent and emulsifier, and the concentrate is diluted with emulsifier-containing water to the desired concentration. Leaf discs of Chinese cabbage (Brassica pekinensis) are sprayed with an active ingredient formulation of the desired concentration and, after drying, populated with larvae of the mustard beetle (Phaedon cochleariae). After 7 days, the efficacy in % is determined. 100% means that all of the beetle larvae have been killed; 0% means that none of the beetle larvae have been killed.

[1] = HPLC, reversed-phase column (C18), 43° C., acidic range pH 2.7, EEC directive 79/831 Annex V.A8, two values = both regioisomers (G = N)
[2] = HPLC, reversed-phase column (C18), acidic range pH 2.7, acetonitrile (0.1% formic acid)/water gradient, 43° C., calibration with unbranched alkan-2-ones
[3] = HPLC, reversed-phase column (C18), acidic range pH 2.7, acetonitrile (0.1% formic acid)/water gradient, 43° C., calibration with unbranched alkan-2-ones, read-out: log p

SMILES	log p (logP (HPLC-MS); [1])	log p (logP (HPLC-MS); [2])	efficacy in % (Spodoptera frugiperda; application rate 100 g/ha)	efficacy in % (Phaedon cochleariae; application rate 100 g/ha)	other results
CCn1c(C(=O)NC(c2ccc3c(c2)OC(F)(F)O3)C(F)(F)F)cc2cc(C(=O)NC3CC3)c(C)cc21 (stereo not shown) [Compound 307]	3.81		100%	100%	
CCn1c(C(=O)NC(c2cc(F)cc(C(F)(F)F)c2)C(F)(F)F)cc2cc(C(=O)NC3(C#N)CC3)c(C)cc21 (stereo not shown) [Compound 331]	4.02				
CCNC(=O)c1cc2cc(C(=O)NC(c3ccc(F)c(C(F)(F)F)c3)C(F)(F)F)n(CC)c2cc1Cl (stereo not shown) [Compound 17]		3.91	100%	100%	
Cn1c(C(=O)NC(c2cccc(C(F)(F)F)c2)C(F)(F)F)nc2cc(C(=O)NC3CC3)c(Cl)cc21 (stereo not shown) [Compound 1]		3.4			efficacy in % (Spodoptera frugiperda; application rate 500 g/ha): 100%; efficacy in % (Phaedon cochleariae; application rate 500 g/ha): 100%
CCn1c(C(=O)NC(c2ccc(F)c(C(F)(F)F)c2)C(F)(F)F)nc2cc(C(=O)NC3CC3)c(Br)cc21 (stereo not shown) [Compound 332]	3.76				
C=CCN(C(=O)c1cc2nc(C(=O)NC(c3cccc(C(F)(F)F)c3)C(F)(F)F)n(CC=C)c2cc1Cl)C1CC1 (stereo not shown) [Compound 309]	4.74				efficacy in % (Spodoptera frugiperda; application rate 500 g/ha): 100%; efficacy in % (Phaedon cochleariae; application rate 500 g/ha): 83%
CCn1c(C(=O)NC(c2ccc(F)c(C(F)(F)F)c2)C(F)(F)F)cc2cc(C(=O)NC(CF)CF)c(C)cc21 (stereo not shown) [Compound 306]	4.03		83%	100%	
CCn1c(C(=O)NC(c2cc(Cl)c(F)c(Cl)c2)C(F)(F)F)cc2cc(C(=O)NC3CC3)c(Cl)cc21 (stereo not shown) [Compound 327]	4.29				
CCn1c(C(=O)NC(c2cccc(C(F)(F)F)c2)C(F)(F)F)cc2cc(CNC(=O)C3CC3)c(C(F)(F)F)cc21 (stereo not shown) [Compound 23]		4.37		100%	
CCn1c(C(=O)NC(c2cccc(C(F)(F)F)c2)C(F)(F)F)cc2cc(CNC(C)=O)c(Cl)cc21 (stereo not shown) [Compound 26, 5-(acetamidomethyl)-6-chloro-1-ethyl-N-{2,2,2-trifluoro-1-[3-(trifluoromethyl)phenyl]ethyl}-1H-indole-2-carboxamide]					chromatographic logP (logP (HPLC-MS); [3]): 3.77; chromatographic logP (logP (HPLC-MS); HPLC-MS): 3.77; pest or weed control at 100 g/ha (Phaedon cochleariae; application rate 100 g/ha): 100%
CCn1c(C(=O)NC(c2ccc(F)c(F)c2)C(F)(F)F)cc2cc(C(=O)NC3CC3)c(Cl)cc21 (stereo not shown) [Compound 329]	3.52				
O=C(NC1CC1)c1cc2nc(C(=O)NC(c3cccc(C(F)(F)F)c3)C(F)(F)F)n(CC3CC3)c2cc1Cl (stereo not shown) [Compound 322]			100%	100%	
CCn1c(C(=O)NC(c2cccc(C(F)(F)F)c2)C(F)(F)F)c(Cl)c2cc(C(=O)NC3(C#N)CC3)c(Cl)cc21 (stereo not shown) [Compound 271, 3,6-dichloro-N^5-(1-cyanocyclopropyl)-1-ethyl-N^2-{2,2,2-trifluoro-1-[3-(trifluoromethyl)phenyl]ethyl}-1H-indole-2,5-dicarboxamide]					chromatographic logP (logP (HPLC-MS); [3]): 3.95; chromatographic logP (logP (HPLC-MS); HPLC-MS): 3.95; pest or weed control at 100 g/ha (Phaedon cochleariae; application rate 100 g/ha): 100%
CCn1c(C(=O)NC(c2ccc(F)c(F)c2)C(F)(F)F)cc2cc(C(=O)NC(C)C[S+](C)[O-])c(C)cc21 (stereo not shown) [Compound 321]	2.76				
C=Cn1c(C(=O)NC(c2cccc(C(F)(F)F)c2)C(F)(F)F)cc2cc(C(=O)NC3(C#N)CC3)ccc21 (stereo not shown) [Compound 324]	3.48				
C#CCn1c(C(=O)NC(c2cccc(C(F)(F)F)c2)C(F)(F)F)nc2cc(C(=O)NC3CC3)c(Cl)cc21 (stereo not shown) [Compound 91]		3.55	100%	100%	
Cc1cc2c(cc1C(=O)NC1(C#N)CC1)cc(C(=O)NC(c1cccc(C(F)(F)F)c1)C(F)(F)F)n2C (stereo not shown) [Compound 196]		3.49	100%	100%	
Cn1c(C(=O)NC(c2cccc(Cl)c2)C(F)(F)F)cc2cc(C(=O)NC3CC3)c(Cl)cc21 (stereo not shown) [Compound 45]		3.33	100%	100%	

Second part, led by results:

log p (logP (HPLC-MS); [1])	log p (logP (HPLC-MS); [2])	SMILES	efficacy in % (Spodoptera frugiperda; application rate 100 g/ha)	efficacy in % (Phaedon cochleariae; application rate 100 g/ha)	other results
	3.99	CCOC(=O)C1(NC(=O)c2cc3cc(C(=O)NC(c4cccc(C(F)(F)F)c4)C(F)(F)F)n(CC)c3cc2Cl)CC1 (stereo not shown) [Compound 34]	83%	100%	
	4.30	CCn1c(C(=O)NC(c2cccc(C(F)(F)F)c2)C(F)(F)F)cc2cc(C(=O)NC3(C(F)(F)F)CC3)c(Cl)cc21 (stereo not shown) [Compound 267]	100%	100%	
	4.19	CCOC1(NC(=O)c2cc3cc(C(=O)NC(c4cccc(C(F)(F)F)c4)C(F)(F)F)n(CC)c3cc2Cl)CC1 (stereo not shown) [Compound 31]	100%	100%	
	4.20	C#CC1(NC(=O)c2cc3cc(C(=O)NC(c4cccc(C(F)(F)F)c4)C(F)(F)F)n(CC)c3cc2Cl)CCC1 (stereo not shown) [Compound 33]		100%	
	4.45	CCn1c(C(=O)NC(c2cccc(C(F)(F)F)c2)C(F)(F)F)cc2cc(C(=O)NC3(C4CC4)CC3)c(Cl)cc21 (stereo not shown) [Compound 29]	83%	100%	
	4.37	CCn1c(C(=O)NC(c2cccc(C(F)(F)F)c2)C(F)(F)F)cc2cc(C(=O)NC(C#N)C(C)C)c(Cl)cc21 (stereo not shown) [Compound 270]		100%	
	4.06	CCC(=O)NCc1cc2cc(C(=O)NC(c3cccc(C(F)(F)F)c3)C(F)(F)F)n(CC)c2cc1Cl (stereo not shown) [Compound 25]	100%	100%	
	4.41	CCn1c(C(=O)NC(c2cccc(C(F)(F)F)c2)C(F)(F)F)cc2cc(C(=O)NC3(C)CC3C)c(Cl)cc21 (stereo not shown) [Compound 266]		100%	
	3.78	CCn1c(C(=O)NC(c2cccc(C(F)(F)F)c2)C(F)(F)F)cc2cc(C(=O)NC(C)CC#N)c(Cl)cc21 (stereo not shown) [Compound 269]		100%	
4.37		CCn1c(C(=O)NC(c2cccc(C(F)(F)F)c2)C(F)(F)F)cc2cc(C(=O)NC(C#N)c3ccccc3)c(Cl)cc21 (stereo not shown) [Compound 318]		100%	
	3.64	CCn1c(C(=O)NC(c2cccc(C(F)(F)F)c2)C(F)(F)F)cc2cc(C(=O)NCC#N)c(Cl)cc21 (stereo not shown) [Compound 21]		100%	
	4.41	CCn1c(C(=O)NC(c2cccc(C(F)(F)F)c2)C(F)(F)F)cc2cc(C(=O)NC(C#N)(CC)CC)c(Cl)cc21 (stereo not shown) [Compound 264]		100%	
4.16		CCn1c(C(=O)NC(c2cccc(C(F)(F)F)c2)C(F)(F)F)cc2cc(C(=O)NC(C#N)(COC)COC)c(Cl)cc21 (stereo not shown) [Compound 325]		100%	
	3.55	Cn1c(C(=O)NC(c2cccc(C(F)(F)F)c2)C(F)(F)F)cc2cc(C(=O)NC3(C#N)CC3)c(Cl)cc21 (stereo not shown) [Compound 44]	100%	100%	
3.36		COC(=O)Cn1c(C(=O)NC(c2cccc(C(F)(F)F)c2)C(F)(F)F)cc2cc(C(=O)NC3(C#N)CC3)c(Cl)cc21 (stereo not shown) [Compound 326]		100%	
4.13		CC(C)Cn1c(C(=O)NC(c2cccc(C(F)(F)F)c2)C(F)(F)F)cc2cc(C(=O)NC3(C#N)CC3)c(Cl)cc21 (stereo not shown) [Compound 299]	100%	100%	
4.08		CCn1c(C(=O)NC(c2cccc(C(F)(F)F)c2)C(F)(F)F)cc2cc(C(=O)NC3(C#N)CC3)c(C(C)C)cc21 (stereo not shown) [Compound 319]	100%	100%	
